Data from US9932630B2, “Method and system for decontaminating materials” (RASIRC, Inc., priority 2014, dated 2018).

How the values were obtained:
bovine genomic DNA = test system: bovine genomic DNA
Description: (§1) FIG. 4 schematic illustrates the apparatus used in this experiment. Equipment included: a purified clean dry air (CDA) gas supply; a pressurized deionized (DI) water supply; a pressure regulator with gauge, a Filterite MPTE-010-1/4CS 0.01 micron gas filter; 3 mass flow controllers (MFCs); an MFC control box; a Stable Gaseous Delivery (SGD) System (i.e., “Concentrator” in the diagram) and a relative humidity system (RHS) (RASIRC, San Diego, Calif.). Membranes using a fluorinated ion-exchange polymer prepared as an ammonium salt were utilized.
Operation of the decontamination apparatus can be understood with reference to FIG. 4. The CDA gas pressure was maintained at 25 psig with the pressure regulator. A 0.01 micron filter removed particulates from the gas stream. The MFCs controlled the flow of the carrier gas streams and the dilution gas stream. […]
A PCR plate to be used for quantifying amplifiable DNA was prepared with three replicates at each target input level (i.e., ranging from 0 ng to 1,000 ng). In each instance, measured aliquots of an aqueous solution of bovine genomic DNA were added to individual wells of the plate, and then dried. […] Amplification reactions were carried out using procedures familiar to those of ordinary skill in the art, and the appearance of fluorescent signals monitored as a function of time in a real-time format.

E. coli = details: 25° C.
Description: as §1
Operation of the decontamination apparatus can be understood with reference to FIG. 4. The CDA gas pressure was maintained at 25 psig with the pressure regulator. A 0.01 micron filter removed particulates from the gas stream. The MFCs controlled the flow of the carrier gas streams and the dilution gas stream. The RHS was used to add water gas to the gas stream. […] The water temperature was used to control the output of the humidifier. The valves (V-1, V-2, and V-3) were used to send either the dry CDA gas stream, the RHS gas stream, and/or SGD gas stream through the furnace or out to vent. TC-1 will be used to measure the temperature of the dry CDA gas stream. TC-2 will be used to measure gas temperature downstream of the RHS. TC-3 and TC-4 were used to measure the gas temperature downstream of the SGD. […]

bacterial samples = details: visible mist or fog present, droplets condensed onto the sample

Q: OO [Hydrogen Peroxide Gas, hydrogen peroxide] was tested. Which “reduction of amplifiable DNA” value (bovine genomic DNA; sample containing the greatest amount of starting material) did it give?
A: The value was “about 4 logs”.

Q: And the “amplifiable DNA after treatment” value (bovine genomic DNA; sample containing the lowest amount of starting material)?
A: Its value is “completely undetectable”.

Q: And the “Growth on tryptic soy agar plates after H202 treatment” value (E. coli; E. coli 1.7×10^7 cfu per spot, gas-phase H2O2 at 505 ppm and H2O at 2122 ppm for 60 minutes)?
A: Its value is “No Growth”.

Q: And the “number of viable bacteria after exposure” value (E. coli; E. coli, gas-phase H2O2 505 ppm, 60 minutes)?
A: Its value is “undetectable level”.

Q: And the “reduction of the number of viable organisms” value (bacterial samples)?
A: The value was “did not significantly reduce”.
